Measured values reported in US20080125480A1, “Oil-In-Water Formulation Of Avermectins” (priority 2004, published 2008).

Columns and labels:
[1] = Stability of Abamectin in water at various pH-values and temperatures (dark, HPLC); assay type: physicochemical
Method: The stability of Abamectin in water at various pH-values and temperatures was determined. 194.4 mg of abamectin was dissolved in 10 ml methanol and 1 ml of the solution transferred to 100 ml of de-mineralised water and a part of this was transferred to a buffer solution. The sample was kept in the dark and the solution analysed using a HPLC.

[2] = Stability of Abamectin in water exposed to light at various pH-values (HPLC); assay type: physicochemical
Method: The stability of Abamectin in water exposed to light at various pH-values was determined. 194.4 mg of abamectin was dissolved in 10 ml methanol and 1 ml of the solution transferred to 100 ml of demineralised water and a part of this transferred to a buffer solution. […]

Substance: Abamectin
- Abamectin concentration ([1]; pH 4.0, 25 °C, 7 days): 3.130 ppm
- Abamectin concentration ([1]; pH 4.0, 25 °C, 14 days): 2.782 ppm
- Abamectin concentration ([1]; pH 4.0, 25 °C, 21 days): 2.566 ppm
- Abamectin concentration ([1]; pH 4.0, 25 °C, 28 days): 2.524 ppm
- Abamectin concentration ([1]; pH 4.0, 25 °C, Initial): 3.495 ppm
- Abamectin concentration ([1]; pH 4.0, 50 °C, 7 days): 1.054 ppm
- Abamectin concentration ([1]; pH 4.0, 50 °C, 14 days): 0.383 ppm
- Abamectin concentration ([1]; pH 4.0, 50 °C, 21 days): 0.123 ppm
- Abamectin concentration ([1]; pH 4.0, 50 °C, 28 days): 0.0609 ppm
- Abamectin concentration ([1]; pH 4.0, 50 °C, Initial): 3.495 ppm
- Abamectin concentration ([1]; pH 7.0, 25 °C, 7 days): 3.188 ppm
- Abamectin concentration ([1]; pH 7.0, 25 °C, 14 days): 3.040 ppm
- Abamectin concentration ([1]; pH 7.0, 25 °C, 21 days): 2.829 ppm
- Abamectin concentration ([1]; pH 7.0, 25 °C, 28 days): 2.676 ppm
- Abamectin concentration ([1]; pH 7.0, 25 °C, Initial): 3.327 ppm
- Abamectin concentration ([1]; pH 7.0, 50 °C, 7 days): 2.952 ppm
- Abamectin concentration ([1]; pH 7.0, 50 °C, 14 days): 2.780 ppm
- Abamectin concentration ([1]; pH 7.0, 50 °C, 21 days): 2.194 ppm
- Abamectin concentration ([1]; pH 7.0, 50 °C, 28 days): 1.949 ppm
- Abamectin concentration ([1]; pH 7.0, 50 °C, Initial): 3.327 ppm
- Abamectin concentration ([1]; pH 9.0, 25 °C, 7 days): 3.005 ppm
- Abamectin concentration ([1]; pH 9.0, 25 °C, 14 days): 2.596 ppm
- Abamectin concentration ([1]; pH 9.0, 25 °C, 21 days): 2.380 ppm
- Abamectin concentration ([1]; pH 9.0, 25 °C, 28 days): 2.287 ppm
- Abamectin concentration ([1]; pH 9.0, 25 °C, Initial): 3.555 ppm
- Abamectin concentration ([1]; pH 9.0, 50 °C, 7 days): 1.265 ppm
- Abamectin concentration ([1]; pH 9.0, 50 °C, 14 days): 0.519 ppm
- Abamectin concentration ([1]; pH 9.0, 50 °C, 21 days): 0.205 ppm
- Abamectin concentration ([1]; pH 9.0, 50 °C, 28 days): 0.0628 ppm
- Abamectin concentration ([1]; pH 9.0, 50 °C, Initial): 3.555 ppm
- Abamectin concentration ([2]; pH 4.0, 25° C., Dark, 7 days): 3.130 ppm
- Abamectin concentration ([2]; pH 4.0, 25° C., Dark, 14 days): 2.782 ppm
- Abamectin concentration ([2]; pH 4.0, 25° C., Dark, 21 days): 2.566 ppm
- Abamectin concentration ([2]; pH 4.0, 25° C., Dark, 28 days): 2.524 ppm
- Abamectin concentration ([2]; pH 4.0, 25° C., Dark, Initial): 3.495 ppm
- Abamectin concentration ([2]; pH 4.0, 25° C., Light (5000-6000 lux), 7 days): 2.923 ppm
- Abamectin concentration ([2]; pH 4.0, 25° C., Light (5000-6000 lux), 14 days): 2.332 ppm
- Abamectin concentration ([2]; pH 4.0, 25° C., Light (5000-6000 lux), 21 days): 1.961 ppm
- Abamectin concentration ([2]; pH 4.0, 25° C., Light (5000-6000 lux), 28 days): 1.666 ppm
- Abamectin concentration ([2]; pH 4.0, 25° C., Light (5000-6000 lux), Initial): 3.495 ppm
- Abamectin concentration ([2]; pH 7.0, 25° C., Dark, 7 days): 3.188 ppm
- Abamectin concentration ([2]; pH 7.0, 25° C., Dark, 14 days): 3.040 ppm
- Abamectin concentration ([2]; pH 7.0, 25° C., Dark, 21 days): 2.829 ppm
- Abamectin concentration ([2]; pH 7.0, 25° C., Dark, 28 days): 2.676 ppm
- Abamectin concentration ([2]; pH 7.0, 25° C., Dark, Initial): 3.327 ppm
- Abamectin concentration ([2]; pH 7.0, 25° C., Light (5000-6000 lux), 7 days): 2.941 ppm
- Abamectin concentration ([2]; pH 7.0, 25° C., Light (5000-6000 lux), 14 days): 2.529 ppm
- Abamectin concentration ([2]; pH 7.0, 25° C., Light (5000-6000 lux), 21 days): 2.223 ppm
- Abamectin concentration ([2]; pH 7.0, 25° C., Light (5000-6000 lux), 28 days): 2.034 ppm
- Abamectin concentration ([2]; pH 7.0, 25° C., Light (5000-6000 lux), Initial): 3.327 ppm
- Abamectin concentration ([2]; pH 9.0, 25° C., Dark, 7 days): 3.005 ppm
- Abamectin concentration ([2]; pH 9.0, 25° C., Dark, 14 days): 2.596 ppm
- Abamectin concentration ([2]; pH 9.0, 25° C., Dark, 21 days): 2.380 ppm
- Abamectin concentration ([2]; pH 9.0, 25° C., Dark, 28 days): 2.287 ppm
- Abamectin concentration ([2]; pH 9.0, 25° C., Dark, Initial): 3.555 ppm
- Abamectin concentration ([2]; pH 9.0, 25° C., Light (5000-6000 lux), 7 days): 3.163 ppm
- Abamectin concentration ([2]; pH 9.0, 25° C., Light (5000-6000 lux), 14 days): 2.810 ppm
- Abamectin concentration ([2]; pH 9.0, 25° C., Light (5000-6000 lux), 21 days): 2.360 ppm
- Abamectin concentration ([2]; pH 9.0, 25° C., Light (5000-6000 lux), 28 days): 2.173 ppm
- Abamectin concentration ([2]; pH 9.0, 25° C., Light (5000-6000 lux), Initial): 3.555 ppm
